{"source": "patent US20100255580A1", "about": "“Differentiation of Human Embryonic Stem Cells” (LIFESCCAN, INC., priority 2007, published 2010)", "key": {"[1]": {"tested_on": "SA002 ES line", "test": "Real-time PCR and FACS of DE markers, SA002 on […]", "format": "cell-based, human", "details": "SA002 P38; 20 ng/ml Wnt-3a with 100 ng/ml activin A", "from_the_text": "Expression of CXCR4 is depicted in FIG. 45: a) AA treatment b) AA+Wnt-3a c) AA+GSK-3B inhibitor."}, "[2]": {"tested_on": "H9 embryonic stem cells", "test": "Immunofluorescence staining of DE markers +/- Wnt-3a (Example 27)", "format": "cell-based, human", "details": "20 ng/ml Wnt-3a; Day 5 DE cultures", "from_the_text": "Day 5 DE cultures of H9 cells were stained according to Example 10 for SOX-17, HNF-3B, GATA-4, N-cadherin, and E-cadherin. All nuclei were counter stained with DAPI."}, "[3]": {"tested_on": "human embryonic stem cell line H9", "test": "FACS analysis of protein expression following activin A treatment, H9 on MEF", "format": "cell-based", "details": "for CD9 protein expression (FACS) / CXCR4 protein expression (FACS) / ECAM protein expression (FACS) / NCAM protein expression (FACS) / SSEA-3 protein expression (FACS): activin A 100 ng/ml", "method": "(§1) The level of expression of definitive endoderm markers was examined by PCR (FIG. 1), FACS (results summarized in Table II), and immunohistochemistry (FIG. 2).\nAdhered cells were removed from culture plates by five-minute incubation with TrypLE™ Express solution (Invitrogen, CA). Released cells were resuspended in human embryonic stem cell culture medium and recovered by centrifugation, followed by washing and resuspending the cells in a staining buffer consisting of 2% BSA, 0.05% sodium azide in PBS (Sigma, MO). As appropriate, the cells were Fc-receptor blocked for 15 minutes using a 0.1% γ-globulin (Sigma) solution. […] Controls included appropriate isotype matched antibodies, unstained cells, and cells stained only with secondary conjugated antibody. All incubations with antibodies were performed for 30 mins at 4° C. after which the cells were washed with the staining buffer. Samples that were stained with unconjugated primary antibodies were incubated for an additional 30 mins at 4° C. with secondary conjugated PE or -APC labeled antibodies. See Table I for a list of secondary antibodies used. Washed cells were pelleted and resuspended in the staining buffer, and the cell surface molecules were identified using a FACS Array (BD Biosciences) instrument, collecting at least 10,000 events."}, "[4]": {"tested_on": "human embryonic stem cell line H9", "test": "Immunocytochemistry of endoderm markers, H9", "format": "cell-based", "details": "activin A for five days", "from_the_text": "as §1\nCells were harvested at the time points indicated in FIG. 3 and assayed by PCR for the expression of genes shown (FIGS. 3, 4 and 5)."}, "[5]": {"tested_on": "H9P44 cells", "test": "RT-PCR of definitive endoderm markers, growth factor combinations in low serum on MEFs (Example 22)", "format": "cell-based, human", "details": "H9P44 on MEF; Day 3; normalized to Group 1 (control)", "method": "Real-time PCR amplification and quantitative analysis.\nFinal data were expressed relative to a calibrator sample.\nH9P44 cells were plated onto 6 well plates previously coated with mitomycin treated mouse embryonic fibroblasts (MEF). Cells were grown until 70 to 80% confluency in ES cell medium consisting of DMEM/F12 (Invitrogen/GIBCO) supplemented with 20% knockout serum replacement, 100 nM MEM nonessential amino acids, 0.5 mM beta-mercaptoethanol, 2 mM L-glutamine (all from Invitrogen/GIBCO) and 8 ng/ml human basic fibroblast growth factor (bFGF) (R&D Systems).\nGrowth factors were added to increasing concentration of FBS in a stepwise manner as indicated in the following regimen: • Day 0: 0% FBS in DMEM/F12 • Day 1: 0.5% FBS in DMEM/F12 • Day 2: 2% FBS in DMEM/F12. • Day 3: Cells were harvested for FACS analysis and RT-PCR.\nAll growth factors were purchased from R&D Systems, MN. A detailed description and concentration of growth factors for each treatment group is shown below.\nFor RT-PCR analysis, cells were analyzed for expression of selected panel of definitive endoderm markers."}}}
{"substance": "Wnt-3a", "values": [{"measurement": "expression of DE markers", "setting": "[1]", "value": "robust expression"}, {"measurement": "expression of N-cadherin", "setting": "[2]", "value": "enhanced expression"}, {"measurement": "expression of e-cadherin", "setting": "[2]", "value": "significant loss"}, {"measurement": "nuclei stained positive for SOX-17, HNF-3beta. and GATA-4", "setting": "[2]", "value": "significantly larger number"}]}
{"substance": "Activin A: a member of the TGFβ superfamily; R&D Systems; Group 2 = Activin A (100 ng/ml)", "values": [{"measurement": "CD9 protein expression (FACS)", "setting": "[3]; 2-DAY", "value": 29.42, "unit": "%"}, {"measurement": "CXCR4 protein expression (FACS)", "setting": "[3]; 2-DAY", "value": 20.2, "unit": "%"}, {"measurement": "ECAM protein expression (FACS)", "setting": "[3]; 2-DAY", "value": 20.87, "unit": "%"}, {"measurement": "NCAM protein expression (FACS)", "setting": "[3]; 2-DAY", "value": 5.04, "unit": "%"}, {"measurement": "SSEA-3 protein expression (FACS)", "setting": "[3]; 2-DAY", "value": 92.14, "unit": "%"}, {"measurement": "CD9 protein expression (FACS)", "setting": "[3]; 5-DAY", "value": 7.27, "unit": "%"}, {"measurement": "CXCR4 protein expression (FACS)", "setting": "[3]; 5-DAY", "value": 55.26, "unit": "%"}, {"measurement": "ECAM protein expression (FACS)", "setting": "[3]; 5-DAY", "value": 14.17, "unit": "%"}, {"measurement": "NCAM protein expression (FACS)", "setting": "[3]; 5-DAY", "value": 21.1, "unit": "%"}, {"measurement": "SSEA-3 protein expression (FACS)", "setting": "[3]; 5-DAY", "value": 42.9, "unit": "%"}, {"measurement": "CD9 protein expression (FACS)", "setting": "[3]; 8-DAY", "value": 4.1, "unit": "%"}, {"measurement": "CXCR4 protein expression (FACS)", "setting": "[3]; 8-DAY", "value": 56.92, "unit": "%"}, {"measurement": "ECAM protein expression (FACS)", "setting": "[3]; 8-DAY", "value": 1.02, "unit": "%"}, {"measurement": "NCAM protein expression (FACS)", "setting": "[3]; 8-DAY", "value": 8.86, "unit": "%"}, {"measurement": "SSEA-3 protein expression (FACS)", "setting": "[3]; 8-DAY", "value": 22.05, "unit": "%"}, {"measurement": "expression of E-cadherin and N-cadherin (FACS)", "setting": "[3]; following activin A treatment", "value": "did not change"}, {"measurement": "cells positive for Sox17 and HNF-3beta (immunocytochemistry)", "setting": "[4]", "value": "30-40%"}, {"measurement": "differentiated cells still Oct4 positive (immunocytochemistry)", "setting": "[4]", "value": "~100", "unit": "%"}, {"measurement": "CXCR4 relative expression", "setting": "[5]", "value": 19.5}, {"measurement": "Goosecoid relative expression", "setting": "[5]", "value": 2.8}, {"measurement": "HNF-3B relative expression", "setting": "[5]", "value": 0.64}, {"measurement": "Oct-4 relative expression", "setting": "[5]", "value": 1.1}, {"measurement": "SOX-2 relative expression", "setting": "[5]", "value": 0.91}, {"measurement": "Sox17 relative expression", "setting": "[5]", "value": 45}]}
